Source: patent US20110200625A1, “PHARMACEUTICAL COMPOSITION” (priority 2010, published 2011)

Assay: presence of drug in the epidermis after the composition is applied to the skin
Format: in vivo
Conditions: after the composition containing the drug has been applied to the skin
Excerpt: In the present invention, the Hsieh enhancer is used in a different way, that is, as a penetration-facilitator for delivery of drug to the dermal layer of the skin without significant, if any, systemic absorption of the drug into the blood stream of the user.

drug observed to be present in the epidermis, time after application: 72 h
SMILES: CO[C@H]1C[C@@H]2CC[C@@H](C)[C@@](O)(O2)C(=O)C(=O)N2CCCC[C@H]2C(=O)O[C@H]([C@H](C)C[C@@H]2CC[C@@H](O)[C@H](OC)C2)CC(=O)[C@H](C)/C=C(\C)[C@@H](O)[C@@H](OC)C(=O)[C@H](C)C[C@H](C)/C=C/C=C/C=C/1C [rapamycin]
